For one series, the target named is T1, GABAA α2β3γ2 (Homo sapiens, UniProt P18507+P28472+P47869).
T1 construct: expressed in transfected cells; host or cells: HEK293
As to the kind of experiment: 35S-TBPS binding assay, HEK293 membranes with GABAA α2β3γ2 construct. The following applies: 35S-TBPS 5 nM, GABA 1 μM, 2 hours at room temperature, read-out: α2β3γ2 (35S-TBPS binding, pIC50) (converted). On the procedure:
(§1) The binding assay is based on the assay reported by K. Gee et al., Eur. J. Pharmacol. 1987, 136, 419-423.
(§2) Homogenate preparation: Membrane preparations of HEK293 cells containing either GABAA α1β2γ2 or GABAA α2β3γ2 constructs were performed according to a modified procedure previously described by Gee et al. (supra). Whole HEK 293 cells in D-PBS (calcium/magnesium free) buffer adjusted to pH 7.4 were centrifuged at 7,280×g for 20 m. After discarding the supernatant, the pellet was resuspended in the buffer and centrifuged at 1,820×g for 10 m. Afterwards, the supernatant was discarded and the pellet resuspended in ice-cold preparation buffer (50 mM Tris HCl pH 7.4, 4° C. and 150 mM KCl), homogenized for 30 sec using a Brinkmann Polytron PT3000 (setting 6) and centrifuged at 48,000×g for 30 m at 4° C. The centrifugation and homogenization procedure was repeated two more times for a total of 3 times before resuspending the membranes at a final protein concentration of 0.5 mg/mL. Aliquots (30 mL) of the final membrane preparation were then centrifuged at 48,000×g for 30 m, and the resulting pellets were stored at −80° C. until required.
(§3) 35S-TBPS binding assay. Membrane pellets containing either GABAA α1β2γ2 or GABAA α2β3γ2 constructs were thawed on ice, resuspended in 10 mL of 50 mM Tris HCl pH7.4, 4° C. and 150 mM KCl and centrifuged at 48,000×g, 30 m at 4° C. After discarding the supernatant, the pellet was resuspended in 30 mL incubation buffer (50 mM Tris HCl pH 7.4, 25° C. and 150 mM KCl) at approximately 0.5 mg/mL protein concentration. In 35S-TBPS competition studies, HEK293 membranes were incubated with 35S-TBPS (5 nM final) and GABA (1 μM) in the absence or presence of competitor at concentrations ranging from 0.01 nM to 10 μM in 125 μL incubation buffer for 2 hours at room temperature (˜22° C.). Non-specific binding was assayed with picrotoxin (100 μM final concentration). The binding reaction was terminated by vacuum filtration through GF/B filters previously soaked in 0.1% polyethylenimine followed by 3×1 mL washes with ice cold wash buffer (50 mM Tris HCl pH7.4, 4° C. and 150 mM KCl). Measurement of bound radioactivity was performed using a Packard Microplate 96 well topcount scintillation counter. Analysis of competition curves and estimation of pIC50 values of test compounds were performed using the software programs ActivityBase and/or Prism (version 3.0).

Another series concerns the target T2, GABAA α1β2γ2 (Homo sapiens, UniProt P14867+P18507+P47870).
T2 construct: expressed in transfected cells; host or cells: HEK293
The experiment in a line: 35S-TBPS binding assay, HEK293 membranes with GABAA α1β2γ2 construct. The note with it: 35S-TBPS 5 nM, GABA 1 μM, 2 hours at room temperature, read-out: α1β2γ2 (35S-TBPS binding, pIC50) (converted). On the procedure: as §1, §2, §3

Structures are written as SMILES.

T1 sequence (P47869 29-451): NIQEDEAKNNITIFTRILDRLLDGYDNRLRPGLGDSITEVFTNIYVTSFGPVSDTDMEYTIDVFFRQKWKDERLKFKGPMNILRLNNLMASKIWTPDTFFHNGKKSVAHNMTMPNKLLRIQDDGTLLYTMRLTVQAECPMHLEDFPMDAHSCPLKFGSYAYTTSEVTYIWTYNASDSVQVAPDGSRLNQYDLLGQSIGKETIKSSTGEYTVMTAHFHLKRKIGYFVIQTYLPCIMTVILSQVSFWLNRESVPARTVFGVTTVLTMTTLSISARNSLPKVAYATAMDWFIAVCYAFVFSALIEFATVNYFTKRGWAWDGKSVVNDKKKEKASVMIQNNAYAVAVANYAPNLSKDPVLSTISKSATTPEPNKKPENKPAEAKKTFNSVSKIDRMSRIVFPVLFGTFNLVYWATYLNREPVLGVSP
T1 sequence (P28472 26-473): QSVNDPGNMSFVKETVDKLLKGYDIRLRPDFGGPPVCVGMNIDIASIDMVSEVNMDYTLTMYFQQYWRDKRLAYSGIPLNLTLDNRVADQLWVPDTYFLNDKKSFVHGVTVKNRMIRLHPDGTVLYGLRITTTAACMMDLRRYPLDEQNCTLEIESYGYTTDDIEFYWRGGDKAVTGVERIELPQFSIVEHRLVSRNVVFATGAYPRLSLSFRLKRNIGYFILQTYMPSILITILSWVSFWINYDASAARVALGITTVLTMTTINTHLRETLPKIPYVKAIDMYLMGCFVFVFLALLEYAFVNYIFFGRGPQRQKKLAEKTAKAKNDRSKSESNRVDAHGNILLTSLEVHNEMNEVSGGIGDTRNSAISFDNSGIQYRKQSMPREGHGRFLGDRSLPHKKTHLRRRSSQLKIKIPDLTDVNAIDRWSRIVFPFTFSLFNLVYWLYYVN
T1 sequence (P18507 40-475): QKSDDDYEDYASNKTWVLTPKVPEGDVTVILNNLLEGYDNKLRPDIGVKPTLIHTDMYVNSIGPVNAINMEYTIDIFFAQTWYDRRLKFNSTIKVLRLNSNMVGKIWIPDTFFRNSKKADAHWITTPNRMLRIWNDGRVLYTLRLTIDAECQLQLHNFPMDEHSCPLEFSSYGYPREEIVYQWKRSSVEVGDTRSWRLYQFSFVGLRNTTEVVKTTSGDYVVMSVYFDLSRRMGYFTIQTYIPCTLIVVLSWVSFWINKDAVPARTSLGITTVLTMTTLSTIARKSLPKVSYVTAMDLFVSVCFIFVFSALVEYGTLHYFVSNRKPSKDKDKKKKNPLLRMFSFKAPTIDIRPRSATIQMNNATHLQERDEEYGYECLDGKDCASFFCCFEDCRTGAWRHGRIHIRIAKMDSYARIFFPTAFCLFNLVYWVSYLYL
T2 sequence (P14867 28-456): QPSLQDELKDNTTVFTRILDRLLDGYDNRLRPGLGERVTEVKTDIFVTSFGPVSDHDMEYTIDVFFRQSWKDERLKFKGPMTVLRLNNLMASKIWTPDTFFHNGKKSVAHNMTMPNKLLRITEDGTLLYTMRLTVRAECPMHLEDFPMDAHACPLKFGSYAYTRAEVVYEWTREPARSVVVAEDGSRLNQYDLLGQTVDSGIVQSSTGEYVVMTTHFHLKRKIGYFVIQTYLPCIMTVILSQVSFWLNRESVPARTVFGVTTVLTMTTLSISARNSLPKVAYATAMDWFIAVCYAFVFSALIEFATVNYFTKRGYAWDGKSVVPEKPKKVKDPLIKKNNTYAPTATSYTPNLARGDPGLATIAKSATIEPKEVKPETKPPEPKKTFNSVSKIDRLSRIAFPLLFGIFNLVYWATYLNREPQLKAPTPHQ
T2 sequence (P47870 25-512 limits assumed): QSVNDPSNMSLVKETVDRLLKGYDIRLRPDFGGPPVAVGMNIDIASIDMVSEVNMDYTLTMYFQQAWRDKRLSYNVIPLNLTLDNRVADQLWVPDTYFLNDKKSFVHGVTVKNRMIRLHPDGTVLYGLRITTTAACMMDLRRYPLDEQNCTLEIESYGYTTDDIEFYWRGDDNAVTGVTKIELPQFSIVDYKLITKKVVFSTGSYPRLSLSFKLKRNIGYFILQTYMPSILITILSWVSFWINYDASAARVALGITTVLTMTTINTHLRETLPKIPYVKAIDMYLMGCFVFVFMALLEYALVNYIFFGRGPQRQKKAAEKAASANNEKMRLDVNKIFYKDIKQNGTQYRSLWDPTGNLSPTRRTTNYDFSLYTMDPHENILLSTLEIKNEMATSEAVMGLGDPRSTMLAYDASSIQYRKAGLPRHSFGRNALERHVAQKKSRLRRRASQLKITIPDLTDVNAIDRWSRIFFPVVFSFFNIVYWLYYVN
T2 sequence (P18507 40-475): as the sequence (P18507 40-475) above

The molecule `Cn1nc2c(-c3ccc(Cl)cc3Cl)cccc2c1CN1CCOC1=O` [I-8, 3-[7-(2,4-Dichloro-phenyl)-2-meth-yl-2H-indazol-3-yl-methyl]-oxazolidin-2-one] yielded a melting point of 165.9 to 167.5 °C. The IC50 at GABAA α2β3γ2 is 1510 nM. In addition, the IC50 at GABAA α1β2γ2 is 6310 nM.

Regarding `Cn1nc2c(-c3ccc(Cl)cc3Cl)cccc2c1Cc1nnnn1CCO` [I-10, 2-{5-[7-(2,4-Dichloro-phenyl)-2-methyl-2H-inda-zol-3-ylmethyl]-tetrazol-1-yl}-eth-anol], the melting point was 66.1 to 87.2 °C. On GABAA α2β3γ2, the IC50 is 398 nM. For the same molecule, the IC50 on GABAA α1β2γ2 was over 10000 nM.

Take `Cn1nc2c(-c3ccc(Cl)cc3Cl)cccc2c1Cc1nnn(CCO)n1` [I-11, 2-{5-[7-(2,4-Dichloro-phenyl)-2-methyl-2H-inda-zol-3-ylmethyl]-tetrazol-2-yl}-eth-anol]: the melting point is 147.7 to 151.1 °C. Besides, the IC50 at GABAA α2β3γ2 was 347 nM. In addition, on GABAA α1β2γ2, the IC50 is 1510 nM.

As to `Cn1nc2c(-c3ccc(Cl)cc3Cl)cccc2c1Cc1nnn(CS(C)(=O)=O)n1` [I-12, 7-(2,4-Dichloro-phenyl)-3-(2-meth-anesulfonylmethyl-2H-tetra-zol-5-ylmethyl)-2-meth-yl-2H-indazole], the melting point was in the range of 156.6 to 157.8 °C. For the same molecule, the IC50 at GABAA α2β3γ2 was 269 nM. For the same molecule, the IC50 on GABAA α1β2γ2 was 1150 nM.

Take `Cn1nc2c(-c3ccc(Cl)cc3Cl)cccc2c1C(=O)c1ncn[nH]1` [I-15, [7-(2,4-Dichloro-phenyl)-2-meth-yl-2H-indazol-3-yl]-(2H-[1,2,4]tri-azol-3-yl)-meth-anone]: the melting point was 283.9 to 284.9 °C. The IC50 on GABAA α2β3γ2 is 331 nM. Moreover, on GABAA α1β2γ2, the IC50 is over 10000 nM.

Turning to `Cn1nc2c(-c3ccc(Cl)cc3Cl)cccc2c1C(=O)c1nnn[nH]1` [I-18, [7-(2,4-Dichloro-phenyl)-2-meth-yl-2H-indazol-3-yl]-(1H-tetra-zol-5-yl)-methanone], the melting point lay in the range of 209.8 to 210.3 °C. On GABAA α2β3γ2, the IC50 is 110 nM. For the same molecule, the IC50 on GABAA α1β2γ2 is 933 nM.

Take `Cn1nnnc1Cc1c2cccc(-c3ccc(Cl)cc3Cl)c2nn1C` [I-20, 7-(2,4-Dichloro-phenyl)-2-meth-yl-3-(1-methyl-1H-tetra-zol-5-ylmethyl)-2H-inda-zole]: the melting point is 183.9 to 185.4 °C. Also, on GABAA α2β3γ2, the IC50 is 1700 nM.

`Cn1nc2c(-c3ccc(Cl)cc3Cl)cccc2c1-n1ccnc1` [I-22, 7-(2,4-Dichloro-phenyl)-3-imi-dazol-1-yl-2-methyl-2H-inda-zole] came in with a melting point of 63.2 to 89.4 °C. Also, the IC50 at GABAA α2β3γ2 was 355 nM. The IC50 at GABAA α1β2γ2 was 3160 nM.

As for `Cn1nc2c(-c3ccc(Cl)cc3Cl)cccc2c1-n1cnnc1` [I-23, 7-(2,4-Dichloro-phenyl)-2-meth-yl-3-[1,2,4]triazol-4-yl-2H-inda-zole], the melting point lay within 117.9 to 121.3 °C. Moreover, the IC50 at GABAA α2β3γ2 is 4070 nM. Further, the IC50 on GABAA α1β2γ2 was over 10000 nM.

Regarding `Cn1nc2c(-c3ccc(Cl)cc3Cl)cccc2c1Cc1nc[nH]n1` [I-31, 7-(2,4-Dichloro-phenyl)-2-meth-yl-3-(1H-[1,2,4]triazol-3-yl-methyl)-2H-indazole], the melting point was 206.3 to 207 °C. In addition, the IC50 at GABAA α2β3γ2 was 355 nM. For the same molecule, on GABAA α1β2γ2, the IC50 is 4170 nM.

`Cn1nnc(Cc2c3cccc(-c4ccc(Cl)cc4Cl)c3nn2C)n1` [I-33, 7-(2,4-Dichloro-phenyl)-2-meth-yl-3-(2-methyl-2H-tetra-zol-5-ylmethyl)-2H-inda-zole] registered a melting point of 158.8 to 160.5 °C. At GABAA α2β3γ2, the IC50 was 102 nM. For the same molecule, the IC50 at GABAA α1β2γ2 was 1480 nM.

The molecule `Cn1nc2c(-c3ccc(Cl)cc3Cl)cccc2c1CCc1ncn[nH]1` [I-34, 7-(2,4-Dichloro-phenyl)-2-meth-yl-3-[2-(2H-[1,2,4]tri-azol-3-yl)-ethyl]-2H-inda-zole] had a melting point of 92 to 115.5 °C. At GABAA α2β3γ2, the IC50 was 309 nM. For the same molecule, the IC50 at GABAA α1β2γ2 was 9550 nM.

Molecule `Cn1nc2c(-c3ccc(Cl)cc3Cl)cccc2c1CCC1=NCCN1` [I-38, 7-(2,4-Dichloro-phenyl)-3-[2-(4,5-di-hydro-1H-imidazol-2-yl)-eth-yl]-2-methyl-2H-inda-zole] displayed a melting point of 60.5 to 65.1 °C. Also, the IC50 at GABAA α2β3γ2 was over 10000 nM. Also, the IC50 on GABAA α1β2γ2 was over 10000 nM.

As to `Cn1nc2c(-c3ccc(Cl)cc3Cl)cccc2c1-c1nnco1` [I-39, 7-(2,4-Dichloro-phenyl)-2-meth-yl-3-[1,3,4]oxadiazol-2-yl-2H-inda-zole], the melting point lay in the range of 199 to 201.2 °C. On GABAA α2β3γ2, the IC50 was 2820 nM. Further, the IC50 on GABAA α1β2γ2 is over 10000 nM.

In turn, `Cn1nc2c(-c3ccc(Cl)cc3Cl)cccc2c1C1=NCCN1` [I-41, 7-(2,4-Dichloro-phenyl)-3-(4,5-di-hydro-1H-imidazol-2-yl)-2-meth-yl-2H-indazole] showed a melting point of 212.8 to 214.5 °C. For the same molecule, the IC50 on GABAA α2β3γ2 is 4680 nM. In addition, the IC50 on GABAA α1β2γ2 is over 10000 nM.

`Cn1nc2c(-c3ccc(Cl)cc3Cl)cccc2c1CCc1nnn[nH]1` [I-46, 7-(2,4-Dichloro-phenyl)-2-meth-yl-3-[2-(1H-tetrazol-5-yl)-eth-yl]-2H-indazole]: the melting point was 209.4 to 210.3 °C. Also, the IC50 on GABAA α2β3γ2 is 603 nM. Further, the IC50 at GABAA α1β2γ2 was 479 nM.

Turning to `Cn1nc2c(-c3ccc(Cl)cc3Cl)cccc2c1/C=C/c1nnn[nH]1` [I-47, 7-(2,4-Dichloro-phenyl)-2-meth-yl-3-[(E)-2-(1H-tetra-zol-5-yl)-vinyl]-2H-inda-zole], the melting point was in the range of 256.8 to 258.1 °C. Moreover, the IC50 at GABAA α2β3γ2 was 151 nM. In addition, the IC50 on GABAA α1β2γ2 is 1200 nM.

`Cn1nc2c(-c3ccc(Cl)cc3Cl)cccc2c1C1=NCCO1` [I-48, 7-(2,4-Dichloro-phenyl)-3-(4,5-di-hydro-oxazol-2-yl)-2-meth-yl-2H-indazole] had a melting point of 162.2 to 167.1 °C. At GABAA α2β3γ2, the IC50 is 468 nM. Moreover, the IC50 on GABAA α1β2γ2 was over 10000 nM.

Consider `Cc1noc(-c2c3cccc(-c4ccc(Cl)cc4Cl)c3nn2C)n1` [I-50, 7-(2,4-Dichloro-phenyl)-2-meth-yl-3-(3-methyl-[1,2,4]oxa-diazol-5-yl)-2H-inda-zole], for which the melting point fell in the range of 178 to 178.5 °C. Also, on GABAA α2β3γ2, the IC50 is 676 nM. Moreover, the IC50 on GABAA α1β2γ2 is over 10000 nM.

`Cn1nc2c(-c3ccc(Cl)cc3Cl)cccc2c1-c1cnco1` [I-51, 7-(2,4-Dichloro-phenyl)-2-meth-yl-3-oxazol-5-yl-2H-inda-zole] returned a melting point of 167.5 to 169.5 °C. Moreover, at GABAA α2β3γ2, the IC50 is 166 nM. The IC50 at GABAA α1β2γ2 is 3020 nM.

In turn, `Cn1nc2c(-c3ccc(Cl)cc3Cl)cccc2c1Cc1nnn[nH]1` [I-53, 7-(2,4-Dichloro-phenyl)-2-meth-yl-3-(1H-tetrazol-5-yl-methyl)-2H-indazole] had a melting point of 270.1 to 275.5 °C. Further, on GABAA α2β3γ2, the IC50 was 234 nM. In addition, at GABAA α1β2γ2, the IC50 is 2240 nM.

The values above are taken from patent US20070238765A1, “Heterocyclic GABAA subtype selective receptor modulators” (Roche Palo Alto LLC, priority 2006, published 2007).
